From patent US7825268B2, “Alkoxylactones, alkoxylactams and alkoxythiolactams for controlling processes based on microbial interaction” (Henkel AG & Co. KGaA, priority 2003, dated 2010)

System: Pseudomonas aeruginosa ATCC 15442
Assay: Biofilm test on glass surfaces (microscope slides, SafraninO staining)
Format: cell-based
Details: 6 hours incubation; for biofilm reduction (relative to the control without active substance): first range finding experiments (FIG. 1)
Description: (b) Use of Alkyloxylactones for the Reduction of Biofilms on Glass Surfaces.
The germ Pseudomonas aeruginosa ATCC 15442 is cultivated at 37° C. on Caso-Agar overnight. A CFU (Colony Eorming Unit) of solid medium is incubated in 50 ml Caso-broth at 37° C. for 7 hours and 150 rpm (1. passage). 100 μl germs from the washed liquid culture are carried over into 50 ml fresh Caso-nutrient medium and incubated at 37° C. for approximately 16 hours and 150 rpm. (2. Passage). A germ count of 10^6 CFU/ml is used from this second passage in the biofilm test. For the biofilm test, the germs in the above-mentioned concentration, together with a diluted complete medium (20 times with DGHM-water diluted TBY), are pipetted into a micro-titration plate (6-position chamber), which is used as the miniaturized biofilm test system. The active substances under test are added in the desired concentration to the mixture (3 ml). As controls, first, attempts were made with active substances, but without germs, as the active substances could already have an inherent color (negative control); secondly, diluted complete medium with germs, but without the active substances were also used as controls. In addition, 1 sterile glass plate (microscope slide), size 18×18, on the surface of which the biofilm growth is investigated, is placed into each of the 6-position chambers. For each starting material, triple determinations are carried out, i.e. three glass slides are investigated per starting material. The 6-position plates are shaken for 6 or 24 hours at 30° C. and 60 rpm. After the predetermined incubation times, 1 ml per starting material are removed for germ count determination, diluted in trypton-NaCl solution and plated out on Caso-Agar. The resulting plates are incubated for 24 hours at 37° C. and then counted. The slide glasses are taken out of the 6-positions to be dried at room temperature and then dyed in new 6-positions with 3 ml 0.01% SafraninO-solution (made up in sterile water) for 15 minutes. The colorant solution is then siphoned off, non-bound colorant is removed with water from the slide glasses and the colored slide glasses dried. The colored and dried surfaces of the slide glasses are scanned and evaluated using Corel Draw paint 9. In order to be able to subtract the background value (of the glass) from the measured value, additional untreated slide glasses are also scanned.

[1] = 100 ppm, DMSO control = 100% (FIG. 2)
[2] = 50 ppm and 100 ppm, control without active substance = 100% (FIG. 1)

CCCCCCCCCCCCCCCCOC1CCOC1=O (stereo not drawn) [hexadecylbutyrolactone, a-hexadecyloxy-γ-butyrolactone]
effect on biofilm formation [1]: best biofilm reduction

CCCCCCCCOC1CCOC1=O (stereo not drawn) [Example H128, a-Octyloxy-γ-butyrolactone]
biofilm reduction (relative to the control without active substance) (100 ppm): approximately 40% | reduction in biofilm inhibition (on increasing the concentration of active substance, it precipitated out, result not shown): 20%

CCCCCCCOC1C(=O)OCC1(C)C (stereo not drawn) [Example 188, Heptyloxypantolactone]
biofilm reduction (with respect to the DMSO control) [1]: more than 40%

CC1(C)COC(=O)C1O (stereo not drawn) [pantolactone, Pantolactone, reference compound]
effect on biofilm formation [1]: did not show any notable effect

CCCCOC1C(=O)OCC1(C)C (stereo not drawn) [Example H123, butyloxypantolactone]
effect on biofilm formation [2]: only a moderate effect

CCCCCCCCO[C@H]1C(=O)OCC1(C)C [Example H33, a-Octyloxy-D-(−)-pantolactone]
biofilm reduction (relative to the control without active substance) (100 ppm): more than 30%

O=C1OCCC1O (stereo not drawn) [hydroxybutyrolactone, Hydroxybutyrolactone, reference compound]
effect on biofilm formation [1]: did not show any notable effect

CCCCOC1CCOC1=O (stereo not drawn) [Example H99, butyloxybutyrolactone]
effect on biofilm formation [2]: only a moderate effect
